This assay has as its target T1, sodium ion channel (Nav1.7) (Homo sapiens, UniProt Q15858).
T1 construct: host or cells: HEK293
Nature of the assay: Blocking effect against sodium ion channel (Nav1.7), IonFlux16 auto patch clamp, hNav1.7 HEK293 cells. The class given is cell-based. Particulars: peak current after 50 seconds treatment, eight concentrations. In outline: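 HEK293 cells stably expressing human Nav1.7 were recorded by IonFlux16 automated patch clamp in extracellular solution (pH 7.45, final DMSO ≤0.3%). Peak current was measured after 50 s exposure to each of eight compound concentrations and expressed as percent inhibition relative to pre-compound current.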
In general terms: Patch clamp records ionic current or voltage across a cell membrane.
T1 sequence (Q15858 whole entry): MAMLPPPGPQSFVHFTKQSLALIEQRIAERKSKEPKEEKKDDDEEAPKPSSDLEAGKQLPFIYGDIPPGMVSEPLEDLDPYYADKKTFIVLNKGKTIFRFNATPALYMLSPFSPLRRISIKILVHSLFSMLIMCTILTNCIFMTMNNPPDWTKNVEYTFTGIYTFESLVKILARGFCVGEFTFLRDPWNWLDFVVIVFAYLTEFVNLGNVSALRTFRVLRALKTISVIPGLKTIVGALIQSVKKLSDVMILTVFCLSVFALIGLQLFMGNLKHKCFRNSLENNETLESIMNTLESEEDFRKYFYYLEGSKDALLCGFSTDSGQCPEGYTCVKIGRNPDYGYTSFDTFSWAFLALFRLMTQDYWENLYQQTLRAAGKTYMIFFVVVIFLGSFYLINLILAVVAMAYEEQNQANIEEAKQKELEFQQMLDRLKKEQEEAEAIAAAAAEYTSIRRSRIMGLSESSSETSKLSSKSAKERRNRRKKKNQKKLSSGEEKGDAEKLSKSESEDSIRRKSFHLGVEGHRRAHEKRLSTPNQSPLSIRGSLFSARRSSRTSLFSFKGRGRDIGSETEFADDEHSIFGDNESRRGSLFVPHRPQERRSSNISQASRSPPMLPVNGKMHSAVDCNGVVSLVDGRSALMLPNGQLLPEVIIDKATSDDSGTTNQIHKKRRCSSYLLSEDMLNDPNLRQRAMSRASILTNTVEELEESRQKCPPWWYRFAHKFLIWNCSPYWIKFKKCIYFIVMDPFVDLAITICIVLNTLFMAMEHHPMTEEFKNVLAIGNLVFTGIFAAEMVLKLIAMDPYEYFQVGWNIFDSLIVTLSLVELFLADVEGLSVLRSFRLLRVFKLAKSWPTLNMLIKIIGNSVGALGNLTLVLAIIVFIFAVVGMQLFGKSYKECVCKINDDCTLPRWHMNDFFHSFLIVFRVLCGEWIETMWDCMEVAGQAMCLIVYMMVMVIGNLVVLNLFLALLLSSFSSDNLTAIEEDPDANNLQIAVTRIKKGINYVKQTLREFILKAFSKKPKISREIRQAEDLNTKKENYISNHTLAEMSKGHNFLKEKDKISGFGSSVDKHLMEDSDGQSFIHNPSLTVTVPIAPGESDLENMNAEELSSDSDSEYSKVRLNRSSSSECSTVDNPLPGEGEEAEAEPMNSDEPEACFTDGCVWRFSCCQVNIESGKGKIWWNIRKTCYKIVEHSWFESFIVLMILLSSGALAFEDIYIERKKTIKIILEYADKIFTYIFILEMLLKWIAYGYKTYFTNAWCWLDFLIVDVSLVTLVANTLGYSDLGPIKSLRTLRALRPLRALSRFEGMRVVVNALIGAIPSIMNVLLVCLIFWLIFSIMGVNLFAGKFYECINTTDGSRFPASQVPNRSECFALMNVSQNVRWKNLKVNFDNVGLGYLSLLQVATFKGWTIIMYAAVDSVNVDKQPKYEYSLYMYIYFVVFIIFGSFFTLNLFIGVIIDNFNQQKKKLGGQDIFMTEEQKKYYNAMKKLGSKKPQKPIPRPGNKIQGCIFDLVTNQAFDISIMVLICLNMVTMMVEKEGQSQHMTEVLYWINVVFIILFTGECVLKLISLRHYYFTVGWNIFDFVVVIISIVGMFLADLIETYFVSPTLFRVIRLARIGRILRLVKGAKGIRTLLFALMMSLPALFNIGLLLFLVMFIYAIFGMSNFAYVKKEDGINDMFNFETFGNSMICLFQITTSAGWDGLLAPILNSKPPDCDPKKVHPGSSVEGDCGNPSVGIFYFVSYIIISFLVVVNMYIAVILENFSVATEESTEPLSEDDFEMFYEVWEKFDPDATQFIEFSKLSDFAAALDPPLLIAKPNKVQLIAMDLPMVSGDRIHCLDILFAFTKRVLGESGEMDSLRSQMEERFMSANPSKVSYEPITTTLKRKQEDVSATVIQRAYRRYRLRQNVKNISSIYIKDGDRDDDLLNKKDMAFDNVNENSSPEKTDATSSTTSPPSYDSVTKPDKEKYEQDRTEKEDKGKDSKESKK
The term IC50 denotes the midpoint of a concentration-inhibition curve. For the compound `O=S(=O)(Nc1cscn1)c1cc(Cl)c(Oc2cnc(-c3ccc(F)cc3)cc2-c2ccoc2)cc1F` [Example 61, 5-chloro-2-fluoro-4-((6-(4-fluorophenyl)-4-(furan-3-yl)pyridin-3-yl)oxy)-N-(thiazol-4-yl)benzenesulfonamide], the IC50 was greater than 100 nM. With `N#Cc1cc(S(=O)(=O)Nc2cscn2)ccc1Oc1cnc(-c2cccc(F)c2)cc1-c1cccnc1` [Example 84, 3-cyano-4-((6′-(3-fluorophenyl)-[3,4′-bipyridin]-3′-yl)oxy)-N-(thiazol-4-yl)benzenesulfonamide] the figure was greater than 100 nM; with `N#Cc1cc(S(=O)(=O)Nc2nccs2)ccc1Oc1cnc(-c2ccccc2)cc1-c1ccoc1` [Example 1, 3-cyano-4-(4-(furan-3-yl)-6-phenylpyridin-3-yloxy)-N-(thiazol-2-yl)benzenesolfonamide], less than 50 nM; with `O=S(=O)(Nc1nccs1)c1ccc(C(O)c2ccc(Cl)cc2-c2cccnc2)cc1` (stereo not drawn) [Example 148, 4-((4-chloro-2-(pyridin-3-yl)phenyl)(hydroxy)methyl)-N-(thiazol-2-yl)benzenesulfonamide], greater than 100 nM. With `N#Cc1cc(S(=O)(=O)Nc2nccs2)ccc1Oc1cnc(-c2ccnc(F)c2)cc1-c1ccoc1` [Example 9, 3-cyano-4-(2′-fluoro-4-(furan-3-yl)-2,4′-bipyridin-5-yloxy)-N-(thiazol-2-yl)benzenesulfonamide] the figure was 51 to 100 nM; with `O=S(=O)(Nc1cscn1)c1cc(Cl)c(Oc2cnc(-c3cccc(F)c3)cc2-c2ccnc(N3CCOCC3)c2)cc1F` [Example 101, 5-chloro-2-fluoro-4-((6-(3-fluorophenyl)-2′-morpholino-[4,4′-bipyridin]-3-yl)oxy)-N-(thiazol-4-yl)benzenesulfonamide], 51 to 100 nM. With `N#Cc1cc(S(=O)(=O)Nc2nccs2)ccc1Oc1cnc(-c2cccnc2F)cc1-c1cccnc1` [Example 51, 3-cyano-4-((2-fluoro-[3,2′:4′,3″-terpyridin]-5′-yl)oxy)-N-(thiazol-2-yl)benzenesulfonamide] the figure was greater than 100 nM; with `N#Cc1cc(S(=O)(=O)Nc2nccs2)ccc1Oc1cnc(-c2ccncc2)cc1-c1ccoc1` [Example 14, 3-cyano-4-(4-(furan-3-yl)-2,4′-bipyridin-5-yloxy)-N-(thiazol-2-yl)benzenesulfonamide], greater than 100 nM; with `N#Cc1cc(S(=O)(=O)Nc2nccs2)ccc1Oc1ccc(-c2ccncc2)nc1-c1ccoc1` [Example 111, 3-cyano-4-((6-(furan-3-yl)-[2,4′-bipyridin]-5-yl)oxy)-N-(thiazol-2-yl)benzenesulfonamide], greater than 100 nM. The compound `N#Cc1cc(S(=O)(=O)Nc2cscn2)ccc1Oc1cnc(-c2ccc(C(F)(F)F)c(F)c2)cc1-c1cccnc1` [Example 86, 3-cyano-4-((6′-(3-fluoro-4-(trifluoromethyl)phenyl)-[3,4′-bipyridin]-3′-yl)oxy)-N-(thiazol-4-yl)benzenesulfonamide] returned an IC50 greater than 100 nM.

Regarding `O=S(=O)(Nc1nccs1)c1cc(Cl)c(Oc2cnc(-c3cccc(F)c3)cc2-c2cccnc2)cc1F` [Example 73, 5-chloro-2-fluoro-4-((6′-(3-fluorophenyl)-[3,4′-bipyridin]-3′-yl)oxy)-N-(thiazol-2-yl)benzenesulfonamide], the IC50 is greater than 100 nM. Compound `O=S(=O)(Nc1nccs1)c1ccc(C(O)c2ccc(Cl)cc2-c2ccoc2)cc1` (stereo not drawn) [Example 143, 4-((4-chloro-2-(furan-3-yl)phenyl)(hydroxy)methyl)-N-(thiazol-2-yl)benzenesulfonamide] returned an IC50 of less than 50 nM. With `Cn1cc(-c2cc(-c3cnn(C)c3)c(Oc3ccc(S(=O)(=O)Nc4ncns4)cc3C#N)cn2)cn1` [Example 55, 4-((4,6-bis(1-methyl-1H-pyrazol-4-yl)pyridin-3-yl)oxy)-3-cyano-N-(1,2,4-thiadiazol-5-yl)benzenesulfonamide] the figure was greater than 100 nM; with `N#Cc1cc(S(=O)(=O)Nc2cscn2)ccc1Oc1cnc(-c2ccc(F)cc2)cc1-c1cn[nH]c1` [Example 90, 3-cyano-4-((6-(4-fluorophenyl)-4-(1H-pyrazol-4-yl)pyridin-3-yl)oxy)-N-(thiazol-4-yl)benzenesulfonamide], greater than 100 nM. Then `Cn1nccc1-c1nc(-c2ccccc2F)ccc1Oc1cc(F)c(S(=O)(=O)Nc2cscn2)cc1Cl` [Example 136, 5-chloro-2-fluoro-4-((6-(2-fluorophenyl)-2-(1-methyl-1H-pyrazol-5-yl)pyridin-3-yl)oxy)-N-(thiazol-4-yl)benzenesulfonamide], with greater than 100 nM; and `O=S(=O)(Nc1cscn1)c1cc(Cl)c(Oc2cnc(-c3cc(Cl)ccc3F)cc2-c2cccnc2)cc1F` [Example 81, 5-chloro-4-((6′-(5-chloro-2-fluorophenyl)-[3,4′-bipyridin]-3′-yl)oxy)-2-fluoro-N-(thiazol-4-yl)benzenesulfonamide], with greater than 100 nM. Then `Cn1nccc1-c1nc(-c2cccnc2F)ccc1Oc1ccc(S(=O)(=O)Nc2nccs2)cc1C#N` [Example 116, 3-cyano-4-((2′-fluoro-6-(1-methyl-1H-pyrazol-5-yl)-[2,3′-bipyridin]-5-yl)oxy)-N-(thiazol-2-yl)benzenesulfonamide], with greater than 100 nM; and `Cn1nccc1-c1cc(-c2cccc(F)c2)ncc1Oc1ccc(S(=O)(=O)Nc2nccs2)cc1C#N` [Example 26, 3-cyano-4-((6-(3-fluorophenyl)-4-(1-methyl-1H-pyrazol-5-yl)pyridin-3-yl)oxy)-N-(thiazol-2-yl)benzenesulfonamide], with 51 to 100 nM. As for `Cc1cc(-c2cc(-c3ccccc3)ncc2Oc2ccc(S(=O)(=O)Nc3nccs3)cc2C#N)c(C)s1` [Example 41, 3-cyano-4-((4-(2,5-dimethylthiophen-3-yl)-6-phenylpyridin-3-yl)oxy)-N-(thiazol-2-yl)benzenesulfonamide], the IC50 is greater than 100 nM.

Compound `O=S(=O)(Nc1cscn1)c1cc(Cl)c(Oc2cnc(-c3cccc(F)c3)cc2-c2cn[nH]c2)cc1F` [Example 78, 5-chloro-2-fluoro-4-((6-(3-fluorophenyl)-4-(1H-pyrazol-4-yl)pyridin-3-yl)oxy)-N-(thiazol-4-yl)benzenesulfonamide] displayed a 50% inhibitory concentration (IC50) greater than 100 nM. `Cn1cc(-c2nc(-c3cccnc3F)ccc2Oc2ccc(S(=O)(=O)Nc3nccs3)cc2C#N)cn1` [Example 123, 3-cyano-4-((2′-fluoro-6-(1-methyl-1H-pyrazol-4-yl)-[2,3′-bipyridin]-5-yl)oxy)-N-(thiazol-2-yl)benzenesulfonamide]: the IC50 was greater than 100 nM. For `N#Cc1cc(S(=O)(=O)Nc2nccs2)ccc1Oc1cnc(-c2ccccc2)cc1-c1cncnc1` [Example 34, 3-cyano-4-((6-phenyl-4-(pyrimidin-5-yl)pyridin-3-yl)oxy)-N-(thiazol-2-yl)benzenesulfonamide], the IC50 was greater than 100 nM. Compound `N#Cc1cc(S(=O)(=O)Nc2nccs2)ccc1Oc1cnc(-c2ccc(F)nc2F)cc1-c1ccoc1` [Example 12, 3-cyano-4-(2′,6′-difluoro-4-(furan-3-yl)-2,3′-bipyridin-5-yloxy)-N-(thiazol-2-yl)benzenesulfonamide] yielded an IC50 of less than 50 nM.

Consider `Cn1cc(-c2nc(-c3ccc(F)nc3)ccc2Oc2ccc(S(=O)(=O)Nc3nccs3)cc2C#N)cn1` [Example 124, 3-cyano-4-((6′-fluoro-6-(1-methyl-1H-pyrazol-4-yl)-[2,3′-bipyridin]-5-yl)oxy)-N-(thiazol-2-yl)benzenesulfonamide], for which the IC50 was greater than 100 nM.

For the origin of these results see US9376429B2, “Sodium channel blockers, preparation method thereof and use thereof” (Daewoong Pharmaceutical Co., Ltd., priority 2012, dated 2016).
